# Results: publication PMC6906431, “Selective small molecule PARG inhibitor causes replication fork stalling and cancer cell death” (Nature Communications, 2019)
# Values joined by “and” are separate entries in the source; they are usually repeats but may differ in a detail not shown here. Identical values can stand only once.
# Legend:
# PC3 cells [1] = assay: Clonogenic survival assay; assay type: cell-based, human; conditions: PC3
# Experimental: (§1) Fig. 6 Selective inhibition of PARG by xanthine derivative JA2131. a Clonogenic survival assays of PC3, MDA-MB-231, and MCF-7 cells treated with PARGi. Cells were treated with either DMSO or 10 µM JA2131 for 2 h, irradiated with 3 Gy (MDA-MB-231 and MCF-7), 7 Gy (PC3) IR and grown for ~2 weeks, then colonies were fixed with methanol and stained with crystal violet. The results of three independent experiments are shown. Error bars = the standard error of the mean (SEM). b dose-response of JA2131 in MDA-MB-231 cells with and without IR. Cells were treated with designated concentrations of JA2131 for 2 h and then either left untreated or exposed to 3 Gy IR and allowed to recover for 1 h before lysis. Total protein was immunoblotted with anti-PAR antibody (upper panel), stripped and reprobed with anti-PCNA as a loading control. c MDA-MB-231 cells with stable scrambled shRNA (WT) or stable PARG shRNA, knockdown (KD), were treated with 5 μM JA2131 for 2 h, lysed and then total lysates were immunoblotted for anti-PAR (upper panel) followed by anti-PARG (upper middle panel), anti-PARP1 (lower middle panel) and anti-actin (bottom panel) antibody. […] Stable cells with scramble shRNA (control) and shPARG (PARG-KD) cells were treated with an increasing concentration of JA2131 for growth inhibitory IC50 determination. The data was normalized against 100% survival at the lowest inhibitor concentration. Error bars show the percent coefficient of variation. Equivalent concentrations of DMSO were used as a negative control. e The cytotoxicity of JA2131 along with PDD, Veliparib and Doxorubicin against MRC-5 cells. Error bars show the percent coefficient of variation. f CETSA for in-cell JA2131 target engagement. Normalized anti-PARG western blot intensities of three independent experiments were fitted as above and the estimated aggregation temperature (Tagg) is shown in the tabulated insert. Source Data are provided as a Source Data file.
# (§2) PC3, MDA-MB-231 cells were maintained in RPMI 1640, MCF-7 cells in Eagle’s Minimum Essential Medium (EMEM), MRC-5 cells in Eagle’s Minimum Essential Medium and Hela and U2OS cells in Dulbecco’s modified Eagle’s high glucose medium (DMEM) supplemented with 10% (vol/vol) fetal bovine serum (FBS) and 1% antibiotic/antimycotic (Lonza) in a humidified incubator with 10% CO2. All cell lines were purchased from ATCC and regularly checked for mycoplasma and cell authentication. SUM 149PT cells were cultured in F-12 Hams (Gibco) supplemented with 5% fetal bovine serum, insulin, and hydrocortisone. Colony formation assays were carried out in 6-well plates, 500 cells were used per well and following designated treatment, and colonies were grown for 2 weeks. Cells were fixed with methanol (100%), stained with crystal violet and analyzed using a GelCount instrument (Oxford Optronix Ltd). Crystal Violet C6158 was purchased from Sigma. PARG knockdown cells were generated by infecting MDA-MB-231 cells with shPARG lentiviral particles (sc-106355-V, Santa Cruz Biotechnology), which contain a pool of three shRNA plasmids. After 24 h infection, 3 µg/ml puromycin (Invitrogen) was added and antibiotic-resistant cells were further expanded and used for experimentation. Sequence-1; hairpin sequence: […], sense: […]tt, Antisense: […]tt. Sequence-2; hairpin sequence, […]-[…], sense: […]tt, antisense: […]tt. Sequence-3; hairpin sequence: […]-[…], sense: […]tt, antisense: […]-GGUUUCCtt. Control cells were generated using the same process except that scramble lentiviral particles with scrambled sequences were used (sc-108080).
# (§3) Supplementary Fig. 8: Clonogenic survival of cells in the presence of PARGi and PARPi (a)
# (§4) Clonogenic survival of PC3 cells in response to indicated compounds. ( b) Clonogenic survival of
# (§5) MDA-MB-231 cells in response to i ndicated compounds. (c) Clonogenic survival of MCF -7 cells
# (§6) in response to indicated compounds. […]
# MCF-7 cells = assay: Clonogenic survival assay; assay type: cell-based, human
# Experimental: as §1, §2, §3, §4, §5, §6
# A172 glioblastoma cells = assay: Sulforhodamine B (SRB) cytotoxicity assay
# Experimental: (§7) Normalized % viabilities are plotted against log concentration. Error bars show the percent coefficient of variation. […] Mann-Whitney test was used to generate the p-value. The DNA spread assay is the representation of two independently repeated experiments. Source Data are provided as a Source Data file.
# (§8) Cells were plated in 96-well plates, treated as designated in reduced 5% FBS and fixed with trichloroacetic acid after 72 h, as previously described by[43]. […] Colorimetric or fluorescence analysis was performed in a FlexStation 3, using SoftMax Pro 7.0, Molecular Devices. Normalized graphs were generated with Prism 8 software, non-linear 4-parameter data fitting was performed for IC50 calculation.
# [2] = Sulforhodamine B (SRB) cytotoxicity assay; conditions: human, A172 glioblastoma cells
# Experimental: as §7, §8
# [3] = Sulforhodamine B (SRB) cytotoxicity assay; assay type: cell-based, human; conditions: human, MRC-5 cells
# Experimental: as §1
# PC3 cells [4] = assay: Sulforhodamine B (SRB) cytotoxicity assay; conditions: 72 h, without IR
# MDA-MB-231 cells = assay: Clonogenic survival assay; assay type: cell-based, human; conditions: MDA-MB-231
# Experimental: as §1, §2, §3, §4, §5, §6
# [5] = Sulforhodamine B (SRB) cytotoxicity assay; conditions: human, PC3 cells, Viability; for viability at 72 h, 1.95 µM: log [concentration] μM 0.290702; for viability at 72 h, 3.91 µM: log [concentration] μM 0.591732; for viability at 72 h, 7.81 µM: log [concentration] μM 0.892818; for viability at 72 h, 15.63 µM: log [concentration] μM 1.19382; for viability at 72 h, 31.25 µM: log [concentration] μM 1.49485; for viability at 72 h, 62.5 µM: log [concentration] μM 1.79588; for viability at 72 h, 125 µM: log [concentration] μM 2.09691; for viability at 72 h, 250 µM: log [concentration] μM 2.39794; for viability at 72 h, 500 µM: log [concentration] μM 2.69897; for viability at 72 h, 1000 µM: log [concentration] μM 3; for viability at 72 h, 2000 µM: log [concentration] μM 3.30103
structure (smiles),measurement,setting,value
Cn1c(=S)c2[nH]c(SCCN3CCOCC3)nc2n(C)c1=O [JA-2131],"colony count (clonogenic survival, raw replicate data, Supplementary Figure 8)","PC3 cells [1]; Experiment-1, replicates 1-6",191 and 210 and 213 and 170 and 222 and 223
same,"colony count (clonogenic survival, raw replicate data, Supplementary Figure 8)","PC3 cells [1]; Experiment-2, replicates 1-6",174 and 164 and 144 and 181 and 152 and 125
same,"colony count (clonogenic survival, raw replicate data, Supplementary Figure 8)","PC3 cells [1]; Experiment-3, replicates 1-6",164 and 128 and 108 and 141 and 148 and 123
same,"colony count (clonogenic survival, raw replicate data, Supplementary Figure 8)","MCF-7 cells; Experiment-1, replicates 1-6",184 and 217 and 183 and 124 and 178 and 153
same,"colony count (clonogenic survival, raw replicate data, Supplementary Figure 8)","MCF-7 cells; Experiment-2, replicates 1-6",141 and 190 (2×) and 218 and 209 and 269
same,"colony count (clonogenic survival, raw replicate data, Supplementary Figure 8)","MCF-7 cells; Experiment-3, replicates 1-6",154 and 188 and 126 and 153 and 169 and 142
C[C@]1(c2nc3c(C(N)=O)cccc3[nH]2)CCCN1 [Veliparib],IC50,"A172 glioblastoma cells; Homo sapiens, A 172, 72 h",153 ± 44.2 µM
same,"viability at 72 h, 0.244 µM",[2],100%
same,"viability at 72 h, 0.488 µM",[2],104%
same,"viability at 72 h, 0.977 µM",[2],102%
same,"viability at 72 h, 1.95 µM",[2],106%
same,"viability at 72 h, 3.91 µM",[2],101%
same,"viability at 72 h, 7.82 µM",[2],104%
same,"viability at 72 h, 15.6 µM",[2],98.6%
same,"viability at 72 h, 31.3 µM",[2],94.1%
same,"viability at 72 h, 62.5 µM",[2],88.5%
same,"viability at 72 h, 125 µM",[2],69.1%
same,"viability at 72 h, 250 µM",[2],27.2%
same,"viability at 72 h, 500 µM",[2],15.4%
same,"viability at 72 h, 1.95 µM",[3]; log [concentration] μM 0.29,90.5%
same,"viability at 72 h, 3.89 µM",[3]; log [concentration] μM 0.59,94.5%
same,"viability at 72 h, 7.76 µM",[3]; log [concentration] μM 0.89,86%
same,"viability at 72 h, 15.5 µM",[3]; log [concentration] μM 1.19,85.3%
same,"viability at 72 h, 30.9 µM",[3]; log [concentration] μM 1.49,89%
same,"viability at 72 h, 63.1 µM",[3]; log [concentration] μM 1.8,77.6%
same,"viability at 72 h, 126 µM",[3]; log [concentration] μM 2.1,70.3%
same,"viability at 72 h, 251 µM",[3]; log [concentration] μM 2.4,58.2%
same,"viability at 72 h, 501 µM",[3]; log [concentration] μM 2.7,34.2%
same,"viability at 72 h, 0.977 µM",[3]; log [concentration] μM -0.01,89.2%
same,"viability at 72 h, 0.49 µM",[3]; log [concentration] μM -0.31,90.8%
same,"viability at 72 h, 0.245 µM",[3]; log [concentration] μM -0.61,100%
[NH2][Pt]1([NH2])[O]CC(=O)[O]1 [Nedaplatin],IC50,A172 glioblastoma cells; 72 h,67.6 ± 46.5 µM
same,Viability,"A172 glioblastoma cells; 72 h, log [concentration] μM 0.291",99.176%
same,Viability,"A172 glioblastoma cells; 72 h, log [concentration] μM 0.592",95.055%
same,Viability,"A172 glioblastoma cells; 72 h, log [concentration] μM 0.893",88.736%
same,Viability,"A172 glioblastoma cells; 72 h, log [concentration] μM 1.495",69.505%
same,Viability,"A172 glioblastoma cells; 72 h, log [concentration] μM 1.796",60.165%
same,Viability,"A172 glioblastoma cells; 72 h, log [concentration] μM 2.097",45.055%
same,Viability,"A172 glioblastoma cells; 72 h, log [concentration] μM 2.398",21.154%
same,Viability,"A172 glioblastoma cells; 72 h, log [concentration] μM 2.699",18.681%
same,Viability,"A172 glioblastoma cells; 72 h, log [concentration] μM 3",18.681%
same,Viability,"A172 glioblastoma cells; 72 h, log [concentration] μM -0.01",107.967%
same,Viability,"A172 glioblastoma cells; 72 h, log [concentration] μM -0.312",100%
same,IC50,PC3 cells [4],4.98 ± 0.2 µM
same,Viability,PC3 cells [4]; log [concentration] μM 0.291,99.072%
same,Viability,PC3 cells [4]; log [concentration] μM 0.592,89.849%
same,Viability,PC3 cells [4]; log [concentration] μM 0.893,9.664%
same,Viability,PC3 cells [4]; log [concentration] μM 1.194,8.121%
same,Viability,PC3 cells [4]; log [concentration] μM 1.495,6.671%
same,Viability,PC3 cells [4]; log [concentration] μM 1.796,7.309%
same,Viability,PC3 cells [4]; log [concentration] μM -0.01,100%
"O=C(c1cc(Cc2n[nH]c(=O)c3ccccc23)ccc1F)N1CCN(C(=O)C2CC2)CC1 [Olaparib, reference compound]","colony count (clonogenic survival, raw replicate data, Supplementary Figure 8)","MDA-MB-231 cells; Experiment-1, replicates 1-6",0 and 1 (2×) and 2 (2×) and 3
same,"colony count (clonogenic survival, raw replicate data, Supplementary Figure 8)","MDA-MB-231 cells; Experiment-2, replicates 1-6",1 (3×) and 2 (2×) and 3
same,"colony count (clonogenic survival, raw replicate data, Supplementary Figure 8)","MDA-MB-231 cells; Experiment-3, replicates 1-6",2 and 1 (3×) and 4 and 3
same,"colony count (clonogenic survival, raw replicate data, Supplementary Figure 8)","PC3 cells [1]; Experiment-1, replicates 1-6",5 and 10 and 21 and 13 and 39 and 16
same,"colony count (clonogenic survival, raw replicate data, Supplementary Figure 8)","PC3 cells [1]; Experiment-2, replicates 1-6",6 (3×) and 1 and 0 and 11
same,"colony count (clonogenic survival, raw replicate data, Supplementary Figure 8)","PC3 cells [1]; Experiment-3, replicates 1-6",0 (2×) and 3 (3×) and 1
same,"colony count (clonogenic survival, raw replicate data, Supplementary Figure 8)","MCF-7 cells; Experiment-1, replicates 1-6",14 and 16 and 15 and 5 and 13 and 26
same,"colony count (clonogenic survival, raw replicate data, Supplementary Figure 8)","MCF-7 cells; Experiment-2, replicates 1-6",25 and 5 (2×) and 4 and 1 and 2
same,"colony count (clonogenic survival, raw replicate data, Supplementary Figure 8)","MCF-7 cells; Experiment-3, replicates 1-6",18 (2×) and 15 and 17 and 16 and 5
same,"viability at 72 h, 1.95 µM",[5]; +IR 7.0 Gy,100%
same,"viability at 72 h, 3.91 µM",[5]; +IR 7.0 Gy,101%
same,"viability at 72 h, 7.81 µM",[5]; +IR 7.0 Gy,101%
same,"viability at 72 h, 15.63 µM",[5]; +IR 7.0 Gy,99.1%
same,"viability at 72 h, 31.25 µM",[5]; +IR 7.0 Gy,79.9%
same,"viability at 72 h, 62.5 µM",[5]; +IR 7.0 Gy,52.4%
same,"viability at 72 h, 125 µM",[5]; +IR 7.0 Gy,32.6%
same,"viability at 72 h, 250 µM",[5]; +IR 7.0 Gy,16.5%
same,"viability at 72 h, 500 µM",[5]; +IR 7.0 Gy,11.1%
same,"viability at 72 h, 1000 µM",[5]; +IR 7.0 Gy,11.4%
same,"viability at 72 h, 2000 µM",[5]; +IR 7.0 Gy,10.8%
same,"viability at 72 h, 1.95 µM",[5]; -IR,100%
same,"viability at 72 h, 3.91 µM",[5]; -IR,102%
same,"viability at 72 h, 7.81 µM",[5]; -IR,94.4%
same,"viability at 72 h, 15.63 µM",[5]; -IR,77.7%
same,"viability at 72 h, 31.25 µM",[5]; -IR,53.3%
same,"viability at 72 h, 62.5 µM",[5]; -IR,34.7%
same,"viability at 72 h, 125 µM",[5]; -IR,20.2%
same,"viability at 72 h, 250 µM",[5]; -IR,9.43%
same,"viability at 72 h, 500 µM",[5]; -IR,5.75%
same,"viability at 72 h, 1000 µM",[5]; -IR,6.34%
same,"viability at 72 h, 2000 µM",[5]; -IR,6.26%
